Results taken from PubChem BioAssay AID330 (DTP/NCI, 2004).
Several values for one entry are separate records, joined by “and”; a condition that tells them apart may be missing. Identical values can stand only once. Inconclusive results and toxic doses are left out.

Test system: P388 leukemia ip, CD2F1 mice, survival T/C
Experiment: NCI In Vivo Anticancer Drug Screen. Data for tumor model P388 Leukemia (intraperitoneal) in CD2F1 (CDF1) mice
Conditions: endpoint: median survival time, higher = longer survival
How it was run: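 Mice carrying the transplanted tumor received test compound or vehicle. Survival was recorded in each group, and the value is the treated-group measurement divided by that of the vehicle-treated control group.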

[1] = dose: 100.0 mg/kg/injection, schedule: Q04DX003 (ip), vehicle: saline with Tween-80
[2] = dose: 200.0 mg/kg/injection, schedule: Q04DX003 (ip), vehicle: saline with Tween-80
[3] = dose: 400.0 mg/kg/injection, schedule: Q04DX003 (ip), vehicle: saline with Tween-80
[4] = dose: 60.0 mg/kg/injection, schedule: Q01DX005 (ip), vehicle: saline with Tween-80
[5] = dose: 120.0 mg/kg/injection, schedule: Q01DX005 (ip), vehicle: saline with Tween-80
[6] = dose: 12.5 mg/kg/injection, schedule: Q01DX009 (ip), vehicle: saline with Tween-80
[7] = dose: 25.0 mg/kg/injection, schedule: Q01DX009 (ip), vehicle: saline with Tween-80
[8] = dose: 50.0 mg/kg/injection, schedule: Q01DX009 (ip), vehicle: saline with Tween-80
[9] = dose: 50.0 mg/kg/injection, schedule: Q01DX009 (ip), vehicle: saline
[10] = dose: 100.0 mg/kg/injection, schedule: Q01DX009 (ip), vehicle: saline
[11] = dose: 200.0 mg/kg/injection, schedule: Q01DX009 (ip), vehicle: saline
[12] = dose: 50.0 mg/kg/injection, schedule: Q01DX005 (ip), vehicle: saline + alcohol
[13] = dose: 100.0 mg/kg/injection, schedule: Q01DX005 (ip), vehicle: saline + alcohol
[14] = dose: 200.0 mg/kg/injection, schedule: Q01DX005 (ip), vehicle: saline + alcohol
[15] = dose: 50.0 mg/kg/injection, schedule: Q01DX009 (ip), vehicle: Klucel (hydroxypropylcellulose) (HPC)
[16] = dose: 100.0 mg/kg/injection, schedule: Q01DX009 (ip), vehicle: Klucel (hydroxypropylcellulose) (HPC)

Q: What does the source list for COC(=O)C1=C/CCCN(CCC2OCCO2)/C=C\1C(=O)OC?
A: T/C [1]: 106 % of control; T/C [2]: 99 % of control; T/C [3]: 108 % of control

Q: For Nc1c(Br)cc(Br)c2[nH]c(=O)c3ccccc3c12, which T/C [4] is on record?
A: 116 % of control

Q: And the T/C [5]?
A: 106 % of control

Q: How did the T/C [4] turn out when CSc1nc(NC2OC(COC(C)=O)C(OC(C)=O)C(OC(C)=O)C2OC(C)=O)c(N=CC=Nc2c(NC3OC(COC(C)=O)C(OC(C)=O)C(OC(C)=O)C3OC(C)=O)nc(SC)n(C)c2=O)c(=O)n1C (stereo not given) was run?
A: 89 % of control

Q: What about the T/C [5] of the same compound?
A: 91 % of control

Q: For CSc1nc(C)c(Br)c(Nc2ccc(C(N)=O)cc2)n1, which T/C (dose: 3.13 mg/kg/injection, schedule: Q01DX009 (ip), vehicle: saline with Tween-80) is on record?
A: 102 % of control

Q: What about the T/C (dose: 6.25 mg/kg/injection, schedule: Q01DX009 (ip), vehicle: saline with Tween-80) of the same compound?
A: 94 % of control

Q: And the T/C [6]?
A: 96 % of control

Q: And the T/C [7]?
A: 94 % of control

Q: With CCCCOC(=O)/C=C(\Br)C(=O)OCCCC as the compound, how does the T/C [8] read?
A: 114 % of control

Q: What about the T/C (dose: 100.0 mg/kg/injection, schedule: Q01DX009 (ip), vehicle: saline with Tween-80) of the same compound?
A: 124 % of control

Q: CCCCCCCCCCCCSCCSCCC was tested. Which T/C [9] did it give?
A: 90 % of control

Q: What about the T/C [10] of the same compound?
A: 100 % of control

Q: And the T/C [11]?
A: 90 % of control

Q: Which results are given for NCCNc1ccc(NCCN)c2c1C(=O)c1ccccc1C2=O?
A: T/C (dose: 0.78 mg/kg/injection, schedule: Q01DX009 (ip), vehicle: distilled water + alcohol): 150 % of control; T/C (dose: 2.0 mg/kg/injection, schedule: Q01DX009 (ip), vehicle: acid diluted with saline): 185 % of control; T/C (dose: 3.13 mg/kg/injection, schedule: Q01DX009 (ip), vehicle: distilled water + alcohol): 107 % of control; T/C (dose: 4.0 mg/kg/injection, schedule: Q01DX009 (ip), vehicle: acid diluted with saline): 194 % of control; T/C (dose: 6.25 mg/kg/injection, schedule: Q01DX009 (ip), vehicle: distilled water + alcohol): 159 % of control; T/C (dose: 8.0 mg/kg/injection, schedule: Q01DX009 (ip), vehicle: acid diluted with saline): 203 % of control; T/C (dose: 12.5 mg/kg/injection, schedule: Q01DX009 (ip), vehicle: distilled water + alcohol): 174 % of control; T/C (dose: 16.0 mg/kg/injection, schedule: Q01DX009 (ip), vehicle: acid diluted with saline): 243 % of control; T/C (dose: 25.0 mg/kg/injection, schedule: Q01DX009 (ip), vehicle: distilled water + alcohol): 215 % of control; T/C (dose: 25.0 mg/kg/injection, schedule: Q01DX009 (ip), vehicle: other): 158 % of control

Q: For Cc1ccc2nc(-c3ccc4nc(-c5ccc(N=Nc6ccc(-c7nc8ccc(-c9nc%10ccc(C)c(S(=O)(=O)O)c%10s9)cc8s7)cc6)cc5)sc4c3)sc2c1S(=O)(=O)O, which T/C [9] is on record?
A: 113 % of control and 116 % of control

Q: What about the T/C [10] of the same compound?
A: 116 % of control and 121 % of control

Q: And the T/C [11]?
A: 112 % of control and 123 % of control

Q: Which T/C [6] does the source give for Clc1ccc(OCCC(Cn2ccnc2)c2ccc(Cl)cc2Cl)c(Cl)c1 (stereo not given) here?
A: 113 % of control

Q: What about the T/C [7] of the same compound?
A: 112 % of control

Q: And the T/C [8]?
A: 101 % of control

Q: Which results are given for C=CC(C)C(O)C(=O)OC (stereo not given)?
A: T/C (dose: 100.0 mg/kg/injection, schedule: Q01DX001 (ip), vehicle: saline with Tween-80): 98 % of control; T/C (dose: 200.0 mg/kg/injection, schedule: Q01DX001 (ip), vehicle: saline with Tween-80): 110 % of control; T/C (dose: 400.0 mg/kg/injection, schedule: Q01DX001 (ip), vehicle: saline with Tween-80): 103 % of control

Q: For CN1C(=O)C2CC(=O)N(Cc3ccccc3)C(=O)C2C1=O (stereo not given), which T/C (dose: 50.0 mg/kg/injection, schedule: Q01DX005 (ip), vehicle: saline with Tween-80) is on record?
A: 96 % of control

Q: And the T/C (dose: 100.0 mg/kg/injection, schedule: Q01DX005 (ip), vehicle: saline with Tween-80)?
A: 87 % of control

Q: What about the T/C (dose: 200.0 mg/kg/injection, schedule: Q01DX005 (ip), vehicle: saline with Tween-80) of the same compound?
A: 87 % of control

Q: Which results are given for COCC(O)COC?
A: T/C [9]: 94 % of control; T/C [10]: 96 % of control; T/C [11]: 87 % of control

Q: COC1=CC(=[N+]2CCCCC2)CC(C)(C)C1 was tested. Which T/C (dose: 25.0 mg/kg/injection, schedule: Q01DX005 (ip), vehicle: saline) did it give?
A: 98 % of control

Q: And the T/C (dose: 50.0 mg/kg/injection, schedule: Q01DX005 (ip), vehicle: saline)?
A: 100 % of control

Q: Which T/C (dose: 25.0 mg/kg/injection, schedule: Q01DX005 (ip), vehicle: saline + alcohol) does the source give for CCOC(=O)CC1NCCc2ccccc21 (stereo not given) here?
A: 103 % of control

Q: What about the T/C [12] of the same compound?
A: 103 % of control

Q: What about the T/C [13] of the same compound?
A: 103 % of control

Q: And the T/C [14]?
A: 101 % of control

Q: Which results are given for CCOC(=O)c1c(Br)c2c3ccccc3c3ccccc3n2c1C?
A: T/C [4]: 100 % of control; T/C [5]: 111 % of control; T/C (dose: 240.0 mg/kg/injection, schedule: Q01DX005 (ip), vehicle: saline with Tween-80): 100 % of control

Q: For [CH2-]N(CC)CC.[CH2-]N(CC)CC.[Rh].[Rh].[Rh].[c-]1[c-][c-][cH-][c-]1.[c-]1[c-][c-][cH-][c-]1.[c-]1[c-][c-][cH-][c-]1, which T/C (dose: 6.25 mg/kg/injection, schedule: Q04DX002 (ip), vehicle: saline) is on record?
A: 108 % of control and 96 % of control

Q: And the T/C (dose: 12.5 mg/kg/injection, schedule: Q04DX002 (ip), vehicle: saline)?
A: 113 % of control and 115 % of control and 91 % of control

Q: And the T/C (dose: 25.0 mg/kg/injection, schedule: Q04DX002 (ip), vehicle: saline)?
A: 99 % of control and 103 % of control and 113 % of control

Q: What about the T/C (dose: 50.0 mg/kg/injection, schedule: Q04DX002 (ip), vehicle: saline) of the same compound?
A: 104 % of control and 91 % of control

Q: Which results are given for COc1cc(N(CC(C)Br)CC(C)Br)ccc1N=Nc1ccccc1C(=O)O (stereo not given)?
A: T/C (dose: 1.56 mg/kg/injection, schedule: Q01DX009 (ip), vehicle: saline with Tween-80): 164 % of control; T/C (dose: 3.12 mg/kg/injection, schedule: Q01DX009 (ip), vehicle: saline with Tween-80): 160 % of control and 169 % of control

Q: Which T/C (dose: 1.0 mg/kg/injection, schedule: Q01DX001 (ip), vehicle: water) does the source give for CC[C@@H]1CN2CCc3c([nH]c4ccccc34)[C@@](C(=O)OC)(c3cc4c(cc3OC)N(C)[C@H]3[C@@](O)(C(=O)OC)[C@H](OC(C)=O)[C@]5(CC)C=CCN6CC[C@]43[C@@H]65)C[C@H](C2)[C@H]1O here?
A: 115 % of control

Q: And the T/C (dose: 2.0 mg/kg/injection, schedule: Q01DX001 (ip), vehicle: water)?
A: 115 % of control

Q: What about the T/C (dose: 4.0 mg/kg/injection, schedule: Q01DX001 (ip), vehicle: water) of the same compound?
A: 117 % of control and 118 % of control

Q: What about the T/C (dose: 32.0 mg/kg/injection, schedule: Q01DX001 (ip), vehicle: water) of the same compound?
A: 174 % of control

Q: And the T/C (dose: 64.0 mg/kg/injection, schedule: Q01DX001 (ip), vehicle: water)?
A: 150 % of control and 174 % of control

Q: For Cc1c2cnccc2c(C)c2c1c1ccccc1n2CCOC(=O)c1ccccc1, which T/C [1] is on record?
A: 95 % of control

Q: And the T/C [2]?
A: 86 % of control

Q: What about the T/C [3] of the same compound?
A: 86 % of control

Q: For c1ccc(Nc2nnnn2C2CCCCC2)cc1, which T/C (dose: 6.25 mg/kg/injection, schedule: Q01DX009 (ip), vehicle: saline) is on record?
A: 101 % of control

Q: What about the T/C (dose: 12.5 mg/kg/injection, schedule: Q01DX009 (ip), vehicle: saline) of the same compound?
A: 105 % of control

Q: And the T/C (dose: 25.0 mg/kg/injection, schedule: Q01DX009 (ip), vehicle: saline)?
A: 100 % of control

Q: And the T/C [9]?
A: 108 % of control

Q: How did the T/C [15] turn out when C=CCN=C(NC#N)SC was run?
A: 103 % of control

Q: What about the T/C [16] of the same compound?
A: 111 % of control

Q: Which T/C (dose: 25.0 mg/kg/injection, schedule: Q01DX009 (ip), vehicle: Klucel (hydroxypropylcellulose) (HPC)) does the source give for COC1CCC(/C=C(\C#N)C2CCC(OC)CC2)CC1 (stereo not given) here?
A: 107 % of control

Q: And the T/C [15]?
A: 100 % of control

Q: And the T/C [16]?
A: 96 % of control

Q: And the T/C (dose: 200.0 mg/kg/injection, schedule: Q01DX009 (ip), vehicle: Klucel (hydroxypropylcellulose) (HPC))?
A: 92 % of control

Q: How did the T/C (dose: 50.0 mg/kg/injection, schedule: Q01DX005 (ip), vehicle: Klucel (hydroxypropylcellulose) (HPC)) turn out when Cn1c2c(c(=O)c3ccccc31)CCC(C)(C)O2 was run?
A: 100 % of control

Q: And the T/C (dose: 100.0 mg/kg/injection, schedule: Q01DX005 (ip), vehicle: Klucel (hydroxypropylcellulose) (HPC))?
A: 91 % of control

Q: What about the T/C (dose: 200.0 mg/kg/injection, schedule: Q01DX005 (ip), vehicle: Klucel (hydroxypropylcellulose) (HPC)) of the same compound?
A: 98 % of control

Q: With O=C(O)c1cscn1.O=C(O)c1cscn1.O=C(O)c1cscn1.O=C(O)c1cscn1.[Cl][Rh][Cl] as the compound, how does the T/C [12] read?
A: 101 % of control

Q: And the T/C [13]?
A: 107 % of control

Q: What about the T/C [14] of the same compound?
A: 104 % of control
